Like-named read-outs stand apart in the source and are kept apart here.
Experiments:
Format in all cases: cell-based, Staphylococcus aureus
S. aureus (MN8) = tested on: S. aureus (MN8)
S. aureus FRI-1169 = tested on: S. aureus FRI-1169
S. aureus FRI-1187 = tested on: S. aureus FRI-1187

Compound: Oc1ccc(Cc2ccccc2)cc1 [4-Hydroxydiphenylmethane, 4-hydroxydiphenyl methane]
- CFU/mL (S. aureus (MN8)): 1.1E+08 CFU/mL
- ELISA: TSST-1 ng/OD unit (S. aureus (MN8)): 785 ng/OD unit
- Optical Density 600 nm (S. aureus (MN8)): 0.581

Compound: Oc1c(Cl)cc(Cl)c(Cl)c1Cc1c(O)c(Cl)cc(Cl)c1Cl [Hexachlorophene, hexachlorophene]
- CFU/mL (S. aureus (MN8)): 3.7E+08 CFU/mL
- Reduction of Toxin (%) (S. aureus (MN8)): 68%
- ELISA: TSST-1 ng/OD unit (S. aureus (MN8); S. aureus MN8, 2 μg/mL test compound, 24 hours): 330 ng/OD unit
- Optical Density 600 nm (S. aureus (MN8); S. aureus MN8, 2 μg/mL test compound, 24 hours, 35° C.): 0.350

Compound: Oc1cc(Cl)ccc1Oc1ccc(Cl)cc1Cl [Triclosan, triclosan]
- CFU/mL (S. aureus (MN8)): 1.0E+08 CFU/mL
- Reduction of Toxin (%) (S. aureus (MN8)): 88%
- ELISA: TSST-1 ng/OD unit (S. aureus (MN8); S. aureus MN8, 0.01 μg/mL test compound, 24 hours): 129 ng/OD unit
- Optical Density 600 nm (S. aureus (MN8); S. aureus MN8, 0.01 μg/mL test compound, 24 hours, 35° C.): 0.271
- CFU/mL (S. aureus FRI-1169): 1.50E+09 CFU/mL
- Optical Density 600 nm (S. aureus FRI-1169): 0.625
- ELISA: TSST-1 ng/OD unit (S. aureus FRI-1169; S. aureus FRI-1169, 0.5 μg/mL): 40 ng/OD unit
- CFU/mL (S. aureus FRI-1187): 1.56E+09 CFU/mL
- Optical Density 600 nm (S. aureus FRI-1187): 0.156
- ELISA: TSST-1 ng/OD unit (S. aureus FRI-1187; S. aureus FRI-1187, 0.5 ug/mL): 95 ng/OD unit
